The values below come from PMC12951562, “SH2scan: Mapping SH2 Domain-Ligand Binding Selectivity for Inhibitors and Degraders” (Journal of Medicinal Chemistry, 2026).

The term Kd denotes the concentration at which binding is half-saturated.

Where two headings read alike, the source gives them in different places.

Assay in all cases: biochemical
In one experiment the target is T1, FYN (Homo sapiens, UniProt P06241).
T1 construct: the DNA-tagged SH2 domain concentrations used in this study were <0.1 nM; made in house; host or cells: HEK293 (transient transfection; unpurified extract)
Format: binding. Conditions: read-out: percent of DMSO vehicle control; for remaining activity at 10 µM: primary screen.

The target in experiment [1] is T2, STAT3(S614R)-nonphosphorylated (Homo sapiens, UniProt P40763, S614R).
T2 construct: made in house; host or cells: HEK293 (transient transfection), unpurified extract, dephosphorylated by endogenous phosphatases
Type of experiment: binding. Particulars: for remaining activity at 10 µM: primary screen.

The target of another experiment is T3, STAT5B (Homo sapiens, UniProt P51692).
T3 construct: made in house; host or cells: HEK293 (transient transfection), unpurified extract
T3 sequence (P51692 1-787): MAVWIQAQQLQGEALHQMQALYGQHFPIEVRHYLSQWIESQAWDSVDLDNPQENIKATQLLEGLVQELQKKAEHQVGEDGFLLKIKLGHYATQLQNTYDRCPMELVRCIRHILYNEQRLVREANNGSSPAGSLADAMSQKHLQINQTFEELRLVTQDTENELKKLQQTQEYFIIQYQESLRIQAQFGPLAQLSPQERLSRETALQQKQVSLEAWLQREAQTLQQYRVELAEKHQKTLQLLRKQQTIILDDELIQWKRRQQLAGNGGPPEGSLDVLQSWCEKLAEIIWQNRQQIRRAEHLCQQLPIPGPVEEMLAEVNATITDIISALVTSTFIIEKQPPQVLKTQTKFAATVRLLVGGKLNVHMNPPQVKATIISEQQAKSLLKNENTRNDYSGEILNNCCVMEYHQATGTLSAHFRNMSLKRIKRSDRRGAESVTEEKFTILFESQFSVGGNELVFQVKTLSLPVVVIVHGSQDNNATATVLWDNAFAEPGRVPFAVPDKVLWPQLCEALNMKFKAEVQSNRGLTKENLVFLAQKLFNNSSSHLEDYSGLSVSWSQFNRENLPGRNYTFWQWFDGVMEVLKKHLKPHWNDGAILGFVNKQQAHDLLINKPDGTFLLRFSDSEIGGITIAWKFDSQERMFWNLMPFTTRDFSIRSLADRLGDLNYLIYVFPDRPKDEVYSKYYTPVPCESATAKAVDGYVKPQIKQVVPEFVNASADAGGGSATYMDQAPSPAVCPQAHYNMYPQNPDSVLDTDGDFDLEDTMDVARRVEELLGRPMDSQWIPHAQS
Format: binding. Conditions: for remaining activity at 10 µM: primary screen.

Another experiment concerns the target T4, SH2D1A (Homo sapiens, UniProt O60880).
T4 construct: made in house; host or cells: HEK293 (transient transfection), unpurified extract
T4 sequence (O60880 1-128): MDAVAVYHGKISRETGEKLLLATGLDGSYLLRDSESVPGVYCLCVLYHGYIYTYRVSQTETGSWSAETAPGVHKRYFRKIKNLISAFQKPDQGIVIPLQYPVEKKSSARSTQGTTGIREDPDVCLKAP
Type of experiment: binding. Particulars: read-out: percent of DMSO vehicle control.

A further experiment addresses T5, ZAP70(SH2dom1.dom2.) (Homo sapiens, UniProt P43403).
T5 sequence (P43403 1-254 limits assumed): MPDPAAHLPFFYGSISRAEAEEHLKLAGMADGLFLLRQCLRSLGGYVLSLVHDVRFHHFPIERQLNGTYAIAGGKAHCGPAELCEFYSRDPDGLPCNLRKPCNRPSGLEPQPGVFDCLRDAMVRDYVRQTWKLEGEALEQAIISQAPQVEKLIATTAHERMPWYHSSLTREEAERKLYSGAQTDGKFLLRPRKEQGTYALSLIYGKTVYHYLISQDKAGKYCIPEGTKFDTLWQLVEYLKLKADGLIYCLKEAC
Conditions: read-out: percent of DMSO vehicle control.

The target in experiment [2] is T6, STAT3(Y640F)-nonphosphorylated (Homo sapiens, UniProt P40763, Y640F).
T6 construct: made in house; host or cells: HEK293 (transient transfection), unpurified extract, dephosphorylated by endogenous phosphatases
Format: binding. Conditions: for remaining activity at 10 µM: primary screen.

In another experiment the target is T7, CISH (Homo sapiens, UniProt Q9NSE2).
T7 construct: the DNA-tagged SH2 domain concentrations used in this study were <0.1 nM; made in house; host or cells: HEK293 (transient transfection; unpurified extract)
T7 sequence (Q9NSE2 82-163 limits assumed): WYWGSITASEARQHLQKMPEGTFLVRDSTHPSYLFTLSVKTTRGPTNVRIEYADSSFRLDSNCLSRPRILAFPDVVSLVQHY
Format: binding. Particulars: for remaining activity at 10 µM: read-out: percent of DMSO vehicle control; for Kd: dose-response, read-out: KD.

A further experiment has as its target T8, STAT3 (Homo sapiens, UniProt P40763).
T8 construct: made in house; host or cells: HEK293 (transient transfection), unpurified extract
Type of experiment: binding. Particulars: for remaining activity at 10 µM: primary screen.

For the next experiment, the target named is T9, STAT5A (Homo sapiens, UniProt P42229).
T9 construct: made in house; host or cells: HEK293 (transient transfection), unpurified extract
T9 sequence (P42229 1-794): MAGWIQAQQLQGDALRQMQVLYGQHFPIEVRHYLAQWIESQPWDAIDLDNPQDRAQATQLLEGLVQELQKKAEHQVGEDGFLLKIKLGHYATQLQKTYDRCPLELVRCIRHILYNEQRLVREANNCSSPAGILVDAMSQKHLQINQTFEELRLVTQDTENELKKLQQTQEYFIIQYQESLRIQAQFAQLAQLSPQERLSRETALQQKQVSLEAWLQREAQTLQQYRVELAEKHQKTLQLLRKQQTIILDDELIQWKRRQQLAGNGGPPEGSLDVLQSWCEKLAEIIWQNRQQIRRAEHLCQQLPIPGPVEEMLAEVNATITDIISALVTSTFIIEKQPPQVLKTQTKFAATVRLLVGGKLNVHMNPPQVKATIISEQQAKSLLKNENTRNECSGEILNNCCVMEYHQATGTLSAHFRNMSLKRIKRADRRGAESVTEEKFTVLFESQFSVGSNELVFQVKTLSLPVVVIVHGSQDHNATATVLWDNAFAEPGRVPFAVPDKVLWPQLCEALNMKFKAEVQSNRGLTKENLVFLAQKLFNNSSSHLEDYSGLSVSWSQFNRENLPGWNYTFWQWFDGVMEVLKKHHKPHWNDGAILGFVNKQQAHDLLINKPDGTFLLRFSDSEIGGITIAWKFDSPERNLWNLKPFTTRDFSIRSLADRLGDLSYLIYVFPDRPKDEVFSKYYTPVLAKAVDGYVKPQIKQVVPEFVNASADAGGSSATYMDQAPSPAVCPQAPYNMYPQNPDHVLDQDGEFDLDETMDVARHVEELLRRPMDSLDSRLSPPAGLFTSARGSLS
Type of experiment: binding. Conditions: for remaining activity at 10 µM: primary screen.

In experiment [3] the target is T10, STAT3(N567K)-nonphosphorylated (Homo sapiens, UniProt P40763, N567K).
T10 construct: made in house; host or cells: HEK293 (transient transfection), unpurified extract, dephosphorylated by endogenous phosphatases
Type of experiment: binding. Conditions: for remaining activity at 10 µM: primary screen.

Experiment [4] concerns the target T11, STAT3(E616del)-nonphosphorylated (Homo sapiens, UniProt P40763, DEL616-616).
T11 construct: made in house; host or cells: HEK293 (transient transfection), unpurified extract, dephosphorylated by endogenous phosphatases
Format: binding. Particulars: for remaining activity at 10 µM: primary screen.

[5] abbreviates: read-out: percent of DMSO vehicle control.

Take `CC(=O)N[C@@H](Cc1ccc(CP(=O)(O)O)cc1)C(=O)NC1(C(=O)N[C@@H](CC(N)=O)C(=O)NCCCc2c(O)ccc3ccccc23)CCCCC1` [CGP78850]: the percent of DMSO vehicle control at 10 µM on FYN was found to be 53.7 ± 4.6%; in [1] (setting [5]), 82.4 ± 3.2%; on STAT5B (setting [5]), 89.6 ± 6.1%; in experiment [2] (setting [5]), 118 ± 3.3%; at STAT3 (setting [5]), 80.9 ± 6.4%; on STAT5A (setting [5]), 84.9 ± 21%. Moreover, the values for the percent of DMSO vehicle control at 10 µM in [3] (setting [5]) and in [4] (setting [5]) were 78.3 ± 2% and 71.8 ± 6.4%, respectively. The results for the remaining activity at 10 µM at SH2D1A, at ZAP70(SH2dom1.dom2.) and on CISH were 63.8 ± 17.1%, 91.6 ± 5.3% and 117 ± 15.1%, respectively.
In the case of `O=C(COc1ccc2cc(C(=O)Nc3ccccc3)ccc2c1)NCc1ccc(OP(=O)(O)O)c(OP(=O)(O)O)c1` [Stafib-1], the remaining activity at 10 µM at FYN was found to be 92.1 ± 35.5%; in experiment [1] (setting [5]) it was 87.4 ± 4.6%; on STAT5B (setting [5]), 0%; at SH2D1A (primary screen, 10 μM), 87.8 ± 37.4%; on ZAP70(SH2dom1.dom2.), 58 ± 19.5%; in experiment [2] (setting [5]) it was 75.3 ± 26%. Besides, the remaining activity at 10 µM was 1.7 ± 2.3% on CISH (primary screen, 10 μM); 66.9 ± 10% at STAT3 (setting [5]); 22 ± 26.6% at STAT5A (setting [5]); 97.5 ± 16.8% in [3] (setting [5]); 135% in [4] (setting [5]). In addition, the Kd on CISH was found to be 3900 ± 8500 nM.
For the molecule `CC(C)(C)[C@H](NC(=O)/C=C/c1ccc(OP(=O)(O)O)cc1)C(=O)N1CCC[C@H]1C(=O)N(c1ccccc1)c1ccc(I)cc1` [STAT6-IN-3], the remaining activity at 10 µM at FYN worked out at 51.8 ± 33.2%; in experiment [1] (setting [5]), 0.1 ± 0.1%; on STAT5B (setting [5]) it was 0%; at SH2D1A (primary screen, 10 μM), 68.5 ± 43.7%; on ZAP70(SH2dom1.dom2.), 60.7 ± 32.9%; in [2] (setting [5]), 2.4 ± 6.1%. Besides, the remaining activity at 10 µM at CISH (primary screen, 10 μM) was determined as 26.8 ± 11.8%; at STAT3 (setting [5]), 0.7 ± 0.2%; on STAT5A (setting [5]), 0%; in experiment [3] (setting [5]) it was 0.2 ± 0.3%; in experiment [4] (setting [5]), 0.4 ± 0.4%. In addition, the Kd is 140 ± 71 nM in experiment [1] (dose-response, read-out: KD); 69 ± 42 nM at STAT5B (dose-response, read-out: KD); 95 ± 40 nM in experiment [2] (dose-response, read-out: KD); 4200 ± 1100 nM on CISH; 370 ± 162 nM on STAT3 (dose-response, read-out: KD); 46 ± 19 nM on STAT5A (dose-response, read-out: KD). Also, the Kd in [3] (dose-response, read-out: KD) was determined as 500 ± 200 nM; in [4] (dose-response, read-out: KD) it was 280 ± 120 nM.
